The assay deals with Bacteria expressing Ambler Class B carbapenemases. Briefly: Growth tests with chelating agents added to antibiotic. The format is cell-based. The protocol: Non-limiting embodiments of detection tests for enteric and non-fermenting bacteria, with various concentration ranges of one or more antibiotics, and various concentration ranges for one or more inhibitors are shown in FIG. 1-FIG. 24 and FIG. 31. These figures illustrate the concentration of the antibiotic being tested (in μg/ml) along the x-axis (not every concentration is tested in every figure), and the amount of growth of bacteria in the sample in the y-axis. The boxes illustrate the median, interquartile range, non-outlier minimum and maximum; with asterisks representing single outliers. Each figure has a panel for Class A, Class B, and Class D producing bacteria, as well as a panel for non-carbapenemase producing bacteria (NEG). In some embodiments, the detection tests described herein are not performed by imaging a change in cell morphology.

With `O=C(O)c1cccc(C(=O)O)n1` [DPA, dipicolinic acid], where the note is “FIG. 9, FIG. 10, FIG. 21 and FIG. 22 (with MEM/CLOX or DOR/CLOX)”, the “concentration at which bacteria are sensitive” value amounted to 180 µg/mL.

`O=C(O)CN(CCN(CC(=O)O)CC(=O)O)CC(=O)O` [EDTA, ethylenediaminetetraacetic acid]: the “concentration at which bacteria are sensitive” value was found to be 250 µg/mL (FIG. 3, FIG. 4, FIG. 15 and FIG. 16 (with TEM/CLOX or DOR/CLOX)); 280 µg/mL (FIG. 5 and FIG. 6 (with TEM/CLOX)).

For the origin of these results see US12234499B2, “Compositions, methods, systems and/or kits for detecting antimicrobial resistance in bacteria” (priority 2016, dated 2025).
